Results published in PubChem BioAssay (NCI).
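Method: 48-hour compound exposure of cells in 96-well plates, five concentrations, linear interpolation of endpoints. TGI: concentration producing complete growth inhibition.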

Assays:
Assay in all cases: growth of human tumour cells (NCI), 48 h
[1] = test system: OVCAR-5 ovarian
[2] = test system: COLO 205 colon
[3] = test system: HS 578T breast
[4] = test system: TK-10 renal
[5] = test system: SR leukemia
[6] = test system: SW-620 colon
[7] = test system: CAKI-1 renal
[8] = test system: A549 NSCLC
[9] = test system: MALME-3M melanoma
[10] = test system: CCRF-CEM leukemia
[11] = test system: MDA-MB-231 breast
[12] = test system: PC-3 prostate
[13] = test system: SF-295 CNS
[14] = test system: SN12C renal
[15] = test system: BT-549 breast
[16] = test system: HCT-116 colon
[17] = test system: RXF 393 renal
[18] = test system: MDA-N
[19] = test system: M14 melanoma
[20] = test system: MDA-MB-435
[21] = test system: ACHN renal
[22] = test system: HCC-2998 colon
[23] = test system: UACC-62 melanoma
[24] = test system: A498 renal
[25] = test system: T-47D breast
[26] = test system: EKVX NSCLC
[27] = test system: SNB-75 CNS
[28] = test system: MOLT-4 leukemia
[29] = test system: U251 CNS
[30] = test system: NCI-H23 lung
[31] = test system: SNB-19 CNS
[32] = test system: OVCAR-3 ovarian
[33] = test system: RPMI-8226 leukemia
[34] = test system: OVCAR-8 ovarian
[35] = test system: NCI-H226 lung
[36] = test system: SF-268 CNS
[37] = test system: HOP-92 NSCLC
[38] = test system: IGROV1 ovarian
[39] = test system: SK-OV-3 ovarian
[40] = test system: MCF7 breast
[41] = test system: SF-539 CNS
[42] = test system: UO-31 renal
[43] = test system: K-562 leukemia
[44] = test system: HCT-15 colon
[45] = test system: NCI-H460 lung
[46] = test system: SK-MEL-28 melanoma
[47] = test system: HL-60(TB) leukemia
[48] = test system: 786-0 renal
[49] = test system: KM12 colon
[50] = test system: LOX IMVI melanoma
[51] = test system: DU-145 prostate
[52] = test system: NCI/ADR-RES ovarian
[53] = test system: SK-MEL-2 melanoma
[54] = test system: OVCAR-4 ovarian
[55] = test system: UACC-257 melanoma
[56] = test system: HOP-62 NSCLC
[57] = test system: HT29 colon
[58] = test system: NCI-H522 lung
[59] = test system: SK-MEL-5 melanoma

In the case of c1ccc(-c2nc(-c3ccccc3SSc3ccccc3-c3nc(-c4ccccc4)nn3-c3ccccc3)n(-c3ccccc3)n2)cc1, the TGI [1] is reported as greater than 100 µM, the TGI [2] is reported as greater than 100 µM and the TGI [3] is reported as greater than 100 µM. The TGI [4] was greater than 100 µM, the TGI [5] was greater than 100 µM and the TGI [6] was greater than 100 µM. It also gave a TGI [7] greater than 100 µM, a TGI [8] greater than 100 µM and a TGI [9] greater than 100 µM. For the same molecule, the TGI [10] was greater than 100 µM, the TGI [11] was greater than 100 µM and the TGI [12] was greater than 100 µM. It also gave a TGI [13] greater than 100 µM, a TGI [14] greater than 100 µM and a TGI [15] greater than 100 µM. The TGI [16] was greater than 100 µM, the TGI [17] was greater than 100 µM and the TGI [18] was greater than 100 µM. It also gave a TGI [19] greater than 100 µM, a TGI [20] greater than 100 µM and a TGI [21] greater than 100 µM. It also gave a TGI [22] greater than 100 µM, a TGI [23] greater than 100 µM and a TGI [24] greater than 100 µM. It also gave a TGI [25] greater than 100 µM, a TGI [26] greater than 100 µM and a TGI [27] greater than 100 µM. It also gave a TGI [28] greater than 100 µM, a TGI [29] greater than 100 µM and a TGI [30] greater than 100 µM. For the same molecule, the TGI [31] was greater than 100 µM, the TGI [32] was greater than 100 µM and the TGI [33] was greater than 100 µM. For the same molecule, the TGI [34] was greater than 100 µM, the TGI [35] was greater than 100 µM and the TGI [36] was greater than 100 µM. It also gave a TGI [37] greater than 100 µM, a TGI [38] greater than 100 µM and a TGI [39] greater than 100 µM. For the same molecule, the TGI [40] was greater than 100 µM, the TGI [41] was greater than 100 µM and the TGI [42] was greater than 100 µM. The TGI [43] was greater than 100 µM, the TGI [44] was greater than 100 µM and the TGI [45] was greater than 100 µM. For the same molecule, the TGI [46] was greater than 100 µM, the TGI [47] was greater than 100 µM and the TGI [48] was greater than 100 µM. It also gave a TGI [49] greater than 100 µM, a TGI [50] greater than 100 µM and a TGI [51] greater than 100 µM. For the same molecule, the TGI [52] was greater than 100 µM.

CC(C)=CCc1c2c(c3occ(-c4ccc(O)cc4)c(=O)c3c1O)CC(C(C)(C)O)O2 (centres undefined) was tested, and the TGI [1] was 33.8 µM, the TGI [2] was 30 µM and the TGI [3] was 69.5 µM. It also gave a TGI [4] of 30.1 µM, a TGI [6] of 64.4 µM and a TGI [7] of 35.7 µM. The TGI [8] was 27.8 µM, the TGI [9] was 36.3 µM and the TGI [10] was greater than 100 µM. For the same molecule, the TGI [11] was 27.6 µM, the TGI [12] was 26.7 µM and the TGI [13] was 25 µM. The TGI [53] was 28.1 µM, the TGI [14] was 38.5 µM and the TGI [15] was 31 µM. The TGI [16] was 45.3 µM, the TGI [54] was 28.8 µM and the TGI [17] was 30.3 µM. The TGI [55] was 29.1 µM, the TGI [18] was 49.1 µM and the TGI [19] was 28.2 µM. For the same molecule, the TGI [56] was 33.6 µM, the TGI [20] was 30.5 µM and the TGI [21] was 28 µM. For the same molecule, the TGI [22] was 23.2 µM, the TGI [23] was 30 µM and the TGI [24] was 29.6 µM. It also gave a TGI [25] of 34.1 µM, a TGI [27] of 31.9 µM and a TGI [28] of 31.8 µM. It also gave a TGI [29] of 25.9 µM, a TGI [30] of 36 µM and a TGI [31] of 31.3 µM. It also gave a TGI [32] of 27.9 µM, a TGI [33] of 29.9 µM and a TGI [34] of 36.2 µM. For the same molecule, the TGI [57] was 25.8 µM, the TGI [35] was 43 µM and the TGI [36] was 48.5 µM. The TGI [37] was 33.5 µM, the TGI [58] was 34 µM and the TGI [38] was 12 µM. It also gave a TGI [39] of 33 µM, a TGI [40] of 28.3 µM and a TGI [59] of 30.1 µM. It also gave a TGI [41] of 41.1 µM, a TGI [42] of 22.2 µM and a TGI [43] of 42.1 µM. It also gave a TGI [44] of 30 µM, a TGI [45] of 26 µM and a TGI [46] of 58.5 µM. It also gave a TGI [47] of 34.4 µM, a TGI [48] of 35.6 µM and a TGI [49] of 35.5 µM. It also gave a TGI [50] of 30.4 µM, a TGI [51] of 29.4 µM and a TGI [52] of 40.6 µM.
